Results: US6949533B2, “6,7-Oxygenated steroids and uses related thereto” (Inflazyme Pharmaceuticals Ltd., priority 1996, dated 2005)

Tests used:
mouse mast cells (MC/9) = assay: antigen-induced release of hexosaminidase from MC/9 cells; assay type: cell-based; details: Mus musculus, MC9, 25 μM compound, read-out: Percentage Inhibition (mean) MC/9 cells
Procedure: The anti-allergic effects of various polyhydroxylated steroids of the present invention were evaluated by measuring their effect on antigen-induced secretion of hexosaminidase from a passively sensitized rat mast cell line (RBL-2H3) and a murine mast cell line (MC/9). The ability of agents to inhibit the release of mast cell granule contents, e.g., histamine and hexosaminidase, is indicative of anti-allergy and/or anti-asthma activity.
Hexosaminidase is released from the mast cell granule along with histamine and other mediators during antigen challenge. RBL-2H3 and MC/9 cells were grown in culture and passively sensitized to dinitrophenol (DNP) using anti-human-DNP (IgE). Cells were incubated with each compound (25 μM) for 1 hour at 37° C. and then stimulated with 0.1 mg/ml DNP-HSA (antigen) for 15 min. Aliquots of the supernatant were removed and used to measure the amount of hexosaminidase released during challenge with the antigen. The amount of hexosaminidase present in the supernatant was determined calorimetrically by monitoring the enzymatic metabolism of p-nitrophenyl-N-acetyl-β-D-glucosaminide (p-NAG) over a period of 1 hour at 410 nm. The effect of each compound was determined as a percentage of the antigen-induced response (minus background release) obtained in the presence of DMSO alone, as set forth in Tables 2 and 3. These values were used to determine the degrees of inhibition of antigen-induced hexosaminidase release from the cells.

guinea pig ileum = assay: antigen-induced contraction of ileum from sensitized guinea pigs; details: Cavia porcellus, read-out: Percentage Inhibition, 30 μM compound, n = 3-4
Procedure: The ability of compounds to inhibit allergen-induced contraction of ileum from sensitized animals is indicative of antiallergic activity. Sensitized guinea pig ileum is particularly useful in measuring the immediate allergic response.
The guinea pig ileum has been used to evaluate the ability of compounds to inhibit allergan-induced histamine and mediator release causing smooth muscle contraction. Guinea pigs were sensitized by an intraperitoneal injection of 100 mg ovalbumin and an intramuscular injection of 50 mg ovalbumin on day 0, followed by a second intramuscular injection of 50 mg ovalbumin on day 1. […] Segments of ileum were prepared and suspended, with muscle contractions being measured in the longitudinal plane, in Tyrode's buffer at 37° C. and aerated with 5% CO2 in O2. Tissues were suspended under a resting tension of 2 grams and isometric contractions were measured using force-displacement transducers coupled to a polygraph. Tissues were stimulated with 3 μM histamine 3 times to ensure reproducible contractions were obtained. Tissues were then incubated with each compound (30 μM) or 0.15% dimethylsulphoxide (DMSO) as a control, for 20 min, after which time the tissues were challenged with 100 μg/ml ovalbumin. The magnitude of the contraction induced by OA in the presence of each compound was expressed as a percentage of the contraction obtained to 3 μM histamine. The protective effects of the various compounds on OA-induced contraction of guinea pig ileum from sensitized animals are summarized in Table 4.

sensitized guinea pigs = assay: allergen-induced changes in lung resistance and compliance in vivo; set-up: species or system guinea pig
Procedure: Female Cam Hartley guinea pigs (350-400 g) are sensitized to ovalbumin by exposure of the guinea pigs to a nebulized solution of 1% ovalbumin in saline for 15 minutes. After 10-12 days, the animals are found to be acutely sensitized to the allergen (ovalbumin). Animals are treated by oral gavage, under light halothane anesthesia, with 300 μl polyethyleneglycol-200 (PEG) or 5 mg/Kg of test compound in 300 μl of PEG. Animals are treated once daily for 4 days with the final dose administered 2 hours prior to allergen challenge. Alternatively, compounds were delivered by inhalation, using a Hudson nebulizer driven by 6 psi oxygen, providing a single dose of 50 μg/Kg 20 min prior to challenge.
An animal is anaesthetized using ketamine ([…]; i.p.) and xylazine (10 mg/Kg; i.p.) and 1% halothane during the surgical procedure. A tracheostomy is performed and a water-filled esophageal cannula is inserted prior to positioning the animal in a body plethysmograph. The tracheal cannula is attached to a fixed tracheal cannula in the plethysmograph. Cardiac function is monitored using electrocardiography. The animal is paralyzed using pancuronium bromide (0.8 mg/Kg; i.m.) and ventilated with 3 ml tidal breaths using a Harvard small animal ventilator, at a frequency of 60 breaths per minute. Pulmonary resistance and dynamic lung compliance data are obtained from volume, flow and transpulmonary pressure signals using multipoint analysis.
Pulmonary function is continually monitored throughout the experiment and measurements of lung resistance and lung compliance are made at various time-points (e.g., 0, 1, 2, 3, 4, 5, 10, 20 and 30 min) following antigen challenge. Data is collected on a computer-linked physiological measurement system using DIREC Physiological recording software and analyzed using ANADAT software designed for lung mechanics measurements. This software was obtained from RHT-InfoDat Inc., Montreal, Quebec, Canada.
Once baseline resistance and compliance measurements are obtained, the animal is challenged with 6 breaths of saline. After 10 minutes, during which time no alterations in lung function should occur, the animal is challenged with 6 breaths of 2 or 3% ovalbumin in saline (as the antigen stimulus). Saline and antigen are delivered in each breath using a Hudson nebulizer.

[1] = 5 mg/kg/day for 4 days p.o., 1 min after challenge
[2] = 5 mg/kg/day for 4 days p.o., 3 min after challenge
[3] = 5 mg/kg/day for 4 days p.o., 4 min after challenge
[4] = 5 mg/kg/day for 4 days p.o., 5 min after challenge
[5] = 5 mg/kg/day for 4 days p.o., 10 min after challenge
[6] = 5 mg/kg/day for 4 days p.o., 20 min after challenge
[7] = 5 mg/kg/day for 4 days p.o., 30 min after challenge
[8] = 5 mg/kg/day for 4 days p.o., Baseline
[9] = 5 mg/kg/day for 4 days p.o., OA/10 s

C/C=C1/CCC2C3C(CC[C@]12C)[C@@]1(C)CC[C@@H](O)CC1[C@@H](O)[C@@H]3O (stereo partly drawn) [Compound 330, 3α,6α,7β-trihydroxy-17(20)-pregnene]
inhibition at 25 µM (mouse mast cells (MC/9)): 49% | inhibition at 30 µM (guinea pig ileum): 70% | Lung Resistance (sensitized guinea pigs; 50 μg/kg inhalation, 3 min after challenge): 0.420 ± 0.051 cm H2O/ml/sec | Lung Compliance (sensitized guinea pigs; 50 μg/kg inhalation, 4 min after challenge): 0.145 ± 0.046 ml/cm H2O | Lung Compliance (sensitized guinea pigs; [1]): 0.182 ± 0.093 ml/cm H2O | Lung Resistance (sensitized guinea pigs; [1]): 0.560 ± 0.101 cm H2O/ml/sec | Lung Resistance (sensitized guinea pigs; 5 mg/kg/day for 4 days p.o., 2 min after challenge): 0.845 ± 0.201 cm H2O/ml/sec | Lung Compliance (sensitized guinea pigs; [2]): 0.133 ± 0.095 ml/cm H2O | Lung Resistance (sensitized guinea pigs; [2]): 0.887 ± 0.160 cm H2O/ml/sec | Lung Compliance (sensitized guinea pigs; [3]): 0.124 ± 0.088 ml/cm H2O | Lung Resistance (sensitized guinea pigs; [3]): 0.778 ± 0.119 cm H2O/ml/sec | Lung Compliance (sensitized guinea pigs; [4]): 0.125 ± 0.087 ml/cm H2O | Lung Resistance (sensitized guinea pigs; [4]): 0.791 ± 0.139 cm H2O/ml/sec | Lung Compliance (sensitized guinea pigs; [5]): 0.150 ± 0.082 ml/cm H2O | Lung Resistance (sensitized guinea pigs; [5]): 0.661 ± 0.141 cm H2O/ml/sec | Lung Compliance (sensitized guinea pigs; [6]): 0.184 ± 0.061 ml/cm H2O | Lung Resistance (sensitized guinea pigs; [6]): 0.366 ± 0.046 cm H2O/ml/sec | Lung Compliance (sensitized guinea pigs; [7]): 0.196 ± 0.061 ml/cm H2O | Lung Resistance (sensitized guinea pigs; [7]): 0.340 ± 0.037 cm H2O/ml/sec | Lung Compliance (sensitized guinea pigs; [8]): 0.318 ± 0.042 ml/cm H2O | Lung Resistance (sensitized guinea pigs; [8]): 0.275 ± 0.036 cm H2O/ml/sec | Lung Compliance (sensitized guinea pigs; [9]): 0.435 ± 0.041 ml/cm H2O | Lung Resistance (sensitized guinea pigs; [9]): 0.260 ± 0.036 cm H2O/ml/sec
